Columns and labels:
Wistar rats = assay: DNBS induced distal colitis in rats; type: in vivo
Protocol: Groups of 3 male Wistar rats (180±20 grams) fasted for 24 hours before 2,4-dinitrobenzene sulfonic acid (DNBS) or saline challenge were used. Distal colitis was induced by intra-colonic instillation of 0.5 mL of an ethanolic solution of DNBS (30 mg in 0.5 mL of a 30% ethanol in saline solution) after which 2 mL of air was injected through the cannula to ensure that the solution remained in the colon. The volume used was 0.1 mL per injection of 2 and 20 mg/mL of 7-oxodehydroepiandrosterone in a liquid formulation, was administered by subcutaneous injection once a day for 6 days. The formulation contained […] of 7-oxodehydroepiandrosterone in a non-aqueous suspension that contained 2% benzyl alcohol w/v, 0.1% Brij 96 w/v and equal volumes of PEG 300 and propylene glycol. Concentrations of 2 mg/mL and 20 mg/mL were obtained by diluting the […] with vehicle that lacked the active substance.
The first dose was given 30 minutes after DNBS challenge. Sulfasalazine (30 mg/mL in 2% Tween 80 in distilled water) was administered orally (PO) once a day (10 mL/kg/day) for 7 days, the first two doses beginning 24 hours and 2 hours before DNBS challenge. The presence of diarrhea was recorded daily by examining the anal area. Animals were fasted for 24 hours prior to being sacrificed. Animals were sacrificed on day 7 or day 8 and their colons were removed and weighed. Before removal of the colon, signs of adhesion between the colon and other organs were recorded. Also, the presence of ulcerations was noted after weighing of each colon. The “net” change of colon-to-body weight (BW) ratio was normalized relative to saline-challenged baseline group. A 30% decrease in “net” colon-to-body weight ratio was considered significant.
A total of five studies were conducted. Data from the first study are reported in this report. The 7-oxodehydroepiandrosterone at 2 and 20 mg/mL, decreased the net colon-to-body weight ratio by 19 and by 14% relative to vehicle-treated group, respectively. […] The formula 1 compound 3β,7β,17β-trihydroxyandrost-5-ene (AET) was administered by subcutaneous injections of 2 and 20 mg/day for 5 or 6 days, with the first dose injected 30 minutes post-DNBS challenge. The AET formulation was the same as the 7-oxodehydroepiandrosterone formulation, except that AET replaced 7-oxodehydroepiandrosterone. AET decreased the net colon-to-body weight ratio by 15% and 21% relative to controls (see the table below). Animals treated with AET (20 mg/kg) had no diarrhea. […] The same formulations containing BrEA hemihydrate (100 mg/mL) or dehydroepiandrosterone (20 mg/mL) decreased the net colon-to-body weight ratio by 21 and 3%, respectively relative to controls.

[1] = Accelerated stability study of BrEA and the example 1 formulations; type: physicochemical
Protocol: An accelerated stability study of 6 months duration is conducted using BrEA and the formulations from example 1. Samples are taken at 1, 2, 3, 4, 5, and 6 month time points and compared with the specifications listed in example 1. Real time stability (25° C., 60% relative humidity) is conducted using BrEA formulation Lots 1 and 2, with sampling time points at 3, 6, 9, 12, 18, 24, and 36 months. […] The results from the stability testing indicate that BrEA is stable for at least 3 months at elevated temperature and humidity in the Lot 1 and 2 formulations.

Plasmodium berghei = assay: Lewis rat in vivo parasitemia study; details: Lewis rats
P. falciparum = assay: Intravenous BrEA malaria patient trial; type: in vivo; details: day 14, two patients
Protocol: Response to drug treatment was graded as per World Health Organization criteria (WHO 1973) in infected patients. Evaluation of therapeutic response was determined using the parasitic and fever clearance times. […]
Microscopy. […] Parasitemia was quantified in thin films by counting 2000 red blood cells in clear contiguous fields and finding the proportion that was parasitized. In thick films, parasitemia was quantified by counting parasites against leukocytes. […] Approximately 5000 erythrocytes were counted in clear contiguous fields 24 and 48 h after incubation of blood obtained at each time point and graded for maturity into tiny rings, small rings, large rings, pigmented trophozoites and schizonts. […]
Calculation of Parameters. […] Parasitemia quantification and clinical examination were done once every 6 hours for the first 72 hours, followed by daily assessment of the parameters up to day 7 (168 hrs) and thereafter on day 14.
Blood films were Giemsa-stained and parasitemia quantification was done in thick films by counting 2000 parasites against leukocytes, and the thin films by finding the proportion of infected red blood cells. […]

With `C[C@]12CC[C@H](O)CC1=CC[C@@H]1[C@@H]2CC[C@]2(C)C(=O)CC[C@@H]12` [DHEA, dehydroepiandrosterone, reference compound] the “animals with severe acute inflammation” value (Wistar rats; 7 days after DNBS challenge, 3 of 10 in immunosteroid vehicle controls) was 10 animals, the “animals with moderate acute inflammation” value (Wistar rats; 7 days after DNBS challenge, 5 of 10 in immunosteroid vehicle controls) was 0 animals and the “animals with severe chronic inflammation” value (Wistar rats; 14 days after DNBS challenge, 8 of 10 in immunosteroid vehicle controls) was 3 animals. For the same compound, the “decrease of net colon-to-body weight ratio relative to vehicle/controls” value (Wistar rats; DNBS rats, 20 mg/mL formulation s.c.) was 3%, the “animals with severe ulceration” value (Wistar rats; day 7 (acute inflammation) after DNBS challenge, vehicle control 8 of 10) was 10 of 10 and the “animals with severe ulceration” value (Wistar rats; day 14 (chronic inflammation) after DNBS challenge, vehicle controls 5 of 10) was 0 of 10.

With `C[C@]12CC[C@H](O)C[C@@H]1CC[C@@H]1[C@@H]2CC[C@]2(C)C(=O)[C@H](Br)C[C@@H]12` [BrEA, 16α-bromo-3β-hydroxy-5α-androstane-17-one] the “assay potency of BrEA” value ([1]; after 3 months of storage at 40° C. and 75% relative humidity) was “at least 95 % of the label value”, the “time BrEA is stable” value ([1]; elevated temperature and humidity, in the Lot 1 and 2 formulations) was “at least 3 months” and the “% RBC parasitemia” value (Plasmodium berghei; Day 4, high dose 60 mg/kg i.v. days 0-3, saline control 16%) was 7%. For the same compound, the “% RBC parasitemia” value (Plasmodium berghei; Day 4, low dose 30 mg/kg i.v. days 0-3, saline control 16%) was 9%, the “% RBC parasitemia” value (Plasmodium berghei; Day 11, high dose 60 mg/kg i.v. days 0-3, saline control 36%) was 11% and the “% RBC parasitemia” value (Plasmodium berghei; Day 11, low dose 30 mg/kg i.v. days 0-3, saline control 36%) was 12%. For the same compound, the parasite clearance rate (P. falciparum) was 100%.

From patent US20070275936A1, “Formulations and Treatment Methods” (priority 1998, published 2007)
